We go through five compounds from BindingDB's records for doi:10.1021/jm00127a026 (Medical University of South Carolina, 1989).

Structures are written as SMILES.

A short description of the experiment: The apparent Km of compound as a substrate for partially purified mouse liver Folyl-polyglutamate synthase. The settings on record: read-out: Ki.
For the compound `NCCCC(NC(=O)c1ccc(NCc2ccc3nc(N)nc(N)c3c2Cl)cc1)C(=O)O` (stereo not given), the apparent Km was determined as 0.0017 µM. For `NCCCC(NC(=O)c1ccc(OCc2ccc3nc[nH]c(=O)c3c2)cc1)C(=O)O` (stereo not given) the value was 1.2 µM; for `NCCCC(NC(=O)c1ccc(OCc2ccc3nc(N)[nH]c(=O)c3c2)cc1)C(=O)O` (stereo not given), 5.9 µM. With `NCCCC(NC(=O)c1ccc(SCc2ccc3nc[nH]c(=O)c3c2)cc1)C(=O)O` (stereo not given) the figure was 0.42 µM; with `NCCCC(NC(=O)c1ccc(SCc2ccc3nc(N)[nH]c(=O)c3c2)cc1)C(=O)O` (stereo not given), 2.8 µM.
